Patent US20170196888A1, “COMPOSITIONS AND METHODS FOR TREATING CANCER” (Yeda Research and Development Co. Ltd., priority 2014, published 2017)

Assays:
MCF10A cells [1] = assay: Transwell migration assay of EGF-stimulated MCF10A cells; format: cell-based, human; conditions: for inhibition of EGF-induced cell migration: MCF10A in transwell, EGF 10 ng/ml, DEX 100 nM, E2 30 nM, PRG 30 nM, MPA 100 nM, 20 hours
Method: MCF10A cells were grown as described^16 and stimulated with EGF (10 ng/ml) or DEX (100 nM). siRNA transfections employed Oligofectamine (Invitrogen) and ON-Target SMART (Dharmacon, Lafayette, Colo.) oligonucleotides. Lapatinib (di-p-Toluenesulfonate Salt) was purchased from LC Laboratories. Anti GR antibody for immunostaining (sc-1004, SANTA CRUZ BIOTECHNOLOGY, INC.)
Cells (5×10^4 cell/insert) were plated in the upper compartment of a 24-well transwell tray (Corning, Acton, MA), and their migration was assayed^16. Cell invasion assays were performed using BioCoat Matrigel Invasion Chambers (BD Bioscience, Franklin Lakes, N.J.). For tracking, cells were seeded (3×10^3 cells/cm^2) on collagen-coated micro-slide (from Ibidi). For collective migration, 8×10^4 cells were seeded in plastic insets (Ibidi), and after overnight incubation, the plastic barriers were removed and time-lapse images were recorded.

MCF10A cells [2] = assay: Annexin V / propidium iodide flow cytometry; format: cell-based, human; conditions: MCF10A pre-treated 24 hours with EGF, DEX or the combination
Method: FIG. 1J—MCF10A cells pre-treated for 24 hours with of EGF, DEX or the combination. Thereafter, cells were stained for the apoptosis marker annexin V and the necrosis marker propidium iodide (PI), and later assayed using flow cytometry.

EGF-induced genes = assay: Affymetrix Exon Array time course of EGF- and DEX-regulated transcripts; format: cell-based, human; conditions: at 20 minutes
Method: (§1) RNA was isolated using the PerfectPure kit from 5 Prime (Hamburg, Germany). Affymetrix GeneChip Human Exon 1.0 ST arrays were used and data were deposited in Gene Expression Omnibus (GSE53405). PCR of pre-mRNA or mRNA used forward primers positioned in the second intron or exon, respectively (Table 3 below).
(§2) All reactions were performed using Power SYBR Green PCR Master Mix (Applied Biosystems, Foster City, CA). For high throughput PCR the Fluidigm® BioMark system was employed. The Affymetrix Expression Console was used for analyses of DNA-arrays, as described^51.
Conceivably, the inhibitory effect of GR involves alterations of EGF-induced transcription. Specifically, GR might affect transcript synthesis or modulate EGF-induced RNA splicing in MCF10A cells. To address such models, cells were stimulated with EGF, DEX or the combination, mRNAs were isolated along a time course from 20 minutes to four hours, and the RNA was hybridized to Affymetrix Exon Arrays which is able to resolve small changes in splicing^19. In addition, confirmatory PCR analyses are provided.

[3] = test system: MCF10A derivatives stably expressing ERRFI1-specific shRNAs; assay: Migration assay of ERRFI1-depleted MCF10A derivatives; format: cell-based, human; conditions: ERRFI1-depleted cells
Method: FIG. 3A—Serum-starved MCF10A cells were treated with EGF or DEX. qPCR analysis was performed using RNA and primers corresponding to pre-mRNAs (dashed lines) or the mature forms (solid lines). FIG. 3B—A scheme depicting negative feedback regulators of EGFR signalling. FIGS. 3C-D—Cells were stimulated as in A and extracts were immunoblotted for ERRFI1, GR and ERK2. Normalized ERRFI1 signals are shown. FIGS. 3E-F—Active ERK signals (pERK) were determined, normalized and presented. FIG. 3G—MCF10A derivatives stably expressing ERRFI1-specific shRNAs were tested for migration following the indicated treatments. The results were analysed as in FIG. 1D. *p<0.05; ***p<0.0001 (one-way Anova). FIG. 3H—Serum-starved MCF10A cells were pre-incubated for 20 minutes with actinomycin D (1 μg/m1), and thereafter stimulated for the indicated time intervals with EGF or DEX. […] FIG. 3I—The pERK signals from FIG. 3H and additional experiments were quantified, normalized to total ERK2 levels and presented.
Cells (5×10^4 cell/insert) were plated in the upper compartment of a 24-well transwell tray (Corning, Acton, MA), and their migration was assayed^16. […] For collective migration, 8×10^4 cells were seeded in plastic insets (Ibidi), and after overnight incubation, the plastic barriers were removed and time-lapse images were recorded.

[4] = test system: N87 human gastric cancer cells; assay: N87 tumor xenograft study with day or night dosing; format: in vivo, mice
Method: All animal experiments were approved by the institutional committee. C57BL/6 (CD45.2, Harlan) and knockout animals were maintained under defined flora conditions and at 12 hour light-dark cycles. For daily clock studies, female mice (10-12 week old) were divided into 2 groups; one was maintained in the day-night room, and the second group was located in a special room (with inverted day-light cycles). Mice were let acclimate for at least one week prior to protein and RNA extraction. For tumor xenograft studies, 20 athymic nude (nu/nu) mice were used and maintained in a Specific Pathogen Free environment. Animals (n=10 per group) were inoculated subcutaneously in the left leg (using a sterile 22-gauge needle) with 5×10^6 N87 cells. Mice were randomized into two groups, daily treated with Lapatinib by oral gavage (40 mg/kg) in the night (2 hours after the light off) and in the day (approximately 70 minutes before light on). Treatments were started 2 weeks after cell injection. Tumor width (W) and length (L) were measured once a week with a calliper and tumor volume (V) was calculated according to the formula: V=0.5×W^2×L.

glucocorticoid receptor = molecular target: T1, glucocorticoid receptor (Homo sapiens, UniProt P04150); conditions: cited from earlier work
T1 sequence (P04150 1-777): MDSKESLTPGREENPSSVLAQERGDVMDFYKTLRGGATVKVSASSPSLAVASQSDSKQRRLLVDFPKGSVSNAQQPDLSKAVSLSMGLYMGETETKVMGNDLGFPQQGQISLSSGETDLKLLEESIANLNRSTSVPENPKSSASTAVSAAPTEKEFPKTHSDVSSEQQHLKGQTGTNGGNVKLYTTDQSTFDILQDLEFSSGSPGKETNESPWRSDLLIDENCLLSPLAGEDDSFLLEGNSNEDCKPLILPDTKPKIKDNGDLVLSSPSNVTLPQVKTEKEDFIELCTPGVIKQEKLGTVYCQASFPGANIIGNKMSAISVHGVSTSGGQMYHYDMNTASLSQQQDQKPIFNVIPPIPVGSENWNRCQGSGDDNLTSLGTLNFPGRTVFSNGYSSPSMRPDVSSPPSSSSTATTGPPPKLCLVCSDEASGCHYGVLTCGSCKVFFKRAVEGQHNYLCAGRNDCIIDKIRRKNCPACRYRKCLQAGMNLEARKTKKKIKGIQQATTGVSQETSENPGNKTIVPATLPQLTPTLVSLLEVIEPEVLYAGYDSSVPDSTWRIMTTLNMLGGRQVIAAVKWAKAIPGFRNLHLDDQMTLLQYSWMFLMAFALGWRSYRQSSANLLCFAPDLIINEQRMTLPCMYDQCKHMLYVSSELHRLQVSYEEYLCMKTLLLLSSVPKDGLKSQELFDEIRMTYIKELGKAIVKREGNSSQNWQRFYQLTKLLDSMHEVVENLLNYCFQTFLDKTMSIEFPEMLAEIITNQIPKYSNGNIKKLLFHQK

DUSP1 and ERRFI1 = assay: qPCR of negative feedback regulators (pre-mRNA and mRNA); format: cell-based, human; conditions: serum-starved MCF10A, EGF 10 ng/ml, DEX 100 nM
Method: as §1, §2
Analyses of defects in vulva formation in worms and aberrations in eye development in insects, two processes controlled by EGFR, helped define several evolutionary conserved and partly redundant negative feedback loops able to robustly terminate EGFR signalling^21. Since Module A (EGF^UP/DEX^UP) includes several orthologs of the invertebrate negative feedback loops, three of them were selected for further analysis. DUSP1 is the prototype of MAPK-specific phosphatases, which dephosphorylate the shared Thr-Xxx-Tyr motif of MAPKs. ERRFI1/MIG6 (also called RALT) is a previously identified steroid-inducible adaptor, which physically binds and inhibits the kinase domain of EGFR^5. […] By using primers specific for the nascent or the mature transcripts, de novo transcription of these three negative regulators was followed (FIG. 3A). […]

With `C[C@@H]1C[C@H]2[C@@H]3CCC4=CC(=O)C=C[C@]4(C)[C@@]3(F)[C@@H](O)C[C@]2(C)[C@@]1(O)C(=O)CO` [DEX, dexamethasone] the “inhibition of EGF-induced migration” value (MCF10A cells [1]; control cells) was 90%, the “cellular toxicity, markers of apoptosis (annexin V) and necrosis (propidium iodide)” value (MCF10A cells [2]) was “excluded the possibility of cellular toxicity” and the “inhibitory effect on EGF-induced genes, share of maximal capacity” value (EGF-induced genes) was 70%. For the same compound, the “inhibition of EGF-induced migration” value [3] was 30%.

For `CS(=O)(=O)CCNCc1ccc(-c2ccc3ncnc(Nc4ccc(OCc5cccc(F)c5)c(Cl)c4)c3c2)o1` [Lapatinib], the “therapeutic impact on tumor size and weight by time of administration” value ([4]; 40 mg/kg/day oral gavage, just before the resting phase (ZT23) versus beginning of the active phase) was “statistically significant enhancement” and the “tumor angiogenesis (appearance of tumors)” value ([4]; administration during the resting phase) was “inhibited tumor angiogenesis”.

For `CC(=O)O[C@]1(C(C)=O)CC[C@H]2[C@@H]3C[C@H](C)C4=CC(=O)CC[C@]4(C)[C@H]3CC[C@@]21C` [MPA, medroxyprogesterone acetate], the “inhibition of EGF-induced cell migration” value (MCF10A cells [1]) is listed as “less potent” and the EC50 (glucocorticoid receptor) is listed as roughly 10 nM.

For `CC(=O)[C@H]1CC[C@H]2[C@@H]3CCC4=CC(=O)CC[C@]4(C)[C@H]3CC[C@]12C` [PRG, progesterone], the “inhibition of EGF-induced cell migration” value (MCF10A cells [1]) was “weak or no activity”.

For “EGF: epidermal growth factor, EGFR ligand used to stimulate MCF10A cells”, the “induction of DUSP1 and ERRFI1 transcripts” value (DUSP1 and ERRFI1) was 3-5 fold.
